Test systems include Staphylococcus aureus; Staphylococcus aureus MR; Acinetobacter baumannii; Escherichia coli; Klebsiella pneumoniae; Listeria grayi DSM 20601; Escherichia coli D31; Escherichia coli AB94012; Escherichia coli B; Bacillus subtilis 168; Pseudomonas aeruginosa.
Common to all, as to experiment: ≥ marks a high value that may be exact or a test limit, other limits are often not marked, values filed in µg/mL are converted to µM
The subject of assay [1] is Acinetobacter baumannii ATCC BAA-747.
The subject of assay [2] is Klebsiella pneumoniae ATCC 700603.
For assay [3], the system named is Escherichia coli ATCC 25922.
For assay [4], the system named is Pseudomonas aeruginosa ATCC 27853.
Assay [5] deals with Staphylococcus aureus NCTC 10442.
For assay [6], the system named is Listeria monocytogenes DSM 20600.
Assay [7] relates to Micrococcus luteus DSM 20030.
For assay [8], the system named is Listeria fleischmannii DSM 24998.
Assay [9] concerns Pseudomonas aeruginosa AB93066.
In assay [10] the test system is Staphylococcus aureus P1374.
Assay [11] has as its system Staphylococcus aureus ATCC 25923.
Assay [12] deals with Staphylococcus aureus P1381.
Assay [13] deals with Staphylococcus aureus AB94004.
Assay [14] concerns Staphylococcus aureus ATCC 6538.
Assay [15] has as its system Pseudomonas aeruginosa ATCC 9027.
The subject of assay [16] is Micrococcus luteus CCM 144.
For assay [17], the system named is Candida albicans F7-39/IDE99.
Assay [18] concerns Bacillus atrophaeus BM013.
The subject of assay [19] is Pseudomonas aeruginosa PAO1.
The test system of assay [20] is Staphylococcus aureus WKZ-2.
For assay [21], the system named is Bacillus licheniformis ATCC 21424.
Assay [22] relates to Staphylococcus aureus ATCC 29213.
In assay [23] the test system is Salmonella enterica subsp. enterica serovar Enteritidis 706 RIVM.
For assay [24], the system named is Fusarium graminearum PH-1.

≈ marks a conversion by molar mass, not a printed value.

Usually MIC stands for the lowest concentration found to suppress growth. Take `CC[C@H](C)[C@H](NC(=O)[C@H](CCSC)NC(=O)[C@H](C)NC(=O)[C@@H]1CCCN1C(=O)[C@@H](NC(=O)[C@@H](NC(=O)[C@H](CCCCN)NC(=O)[C@@H](NC(=O)[C@H](CC(C)C)NC(=O)CNC(=O)CNC(=O)[C@H](CC(C)C)NC(=O)[C@@H](N)Cc1ccccc1)[C@@H](C)CC)[C@@H](C)CC)C(C)C)C(=O)N[C@@H](CS)C(=O)N[C@@H](C)C(=O)N[C@H](C(=O)N[C@H](C(=O)N[C@@H](CCCCN)C(=O)N[C@@H](CCCCN)C(=O)N[C@@H](CS)C(=O)N[C@@H](Cc1cnc[nH]1)C(=O)N[C@@H](Cc1cnc[nH]1)C(=O)N[C@@H](Cc1cnc[nH]1)C(=O)N[C@@H](Cc1cnc[nH]1)C(=O)N[C@@H](Cc1cnc[nH]1)C(=O)N[C@@H](Cc1cnc[nH]1)C(=O)O)[C@@H](C)O)C(C)C` [FLGGLIKIVPAMICAVTKKCHHHHHH]: the MIC in assay [1] amounted to 21.9 µM (≈ 64 µg/mL); in assay [2], 43.7 µM (≈ 128 µg/mL); in assay [3], 10.9 µM (≈ 32 µg/mL); in the assay with Staphylococcus aureus, 5.46 µM (≈ 16 µg/mL); against Staphylococcus aureus MR it was 2.73 µM (≈ 8 µg/mL); against Acinetobacter baumannii it was 10.9 µM (≈ 32 µg/mL). Moreover, the MIC is 7.73 µM (≈ 22.6 µg/mL) with Escherichia coli, 43.7 µM (≈ 128 µg/mL) in assay [4], 5.46 µM (≈ 16 µg/mL) in assay [5] and 21.9 µM (≈ 64 µg/mL) in the assay on Klebsiella pneumoniae.

For `CC[C@H](C)[C@H](NC(=O)[C@H](C)NC(=O)[C@H](CO)NC(=O)[C@H](CCCCN)NC(=O)[C@@H]1CCCN1C(=O)[C@@H](NC(=O)[C@H](CCCCN)NC(=O)[C@H](CC(C)C)NC(=O)[C@H](CO)NC(=O)[C@H](CC(C)C)NC(=O)[C@H](CCCCN)NC(=O)[C@H](CC(C)C)NC(=O)[C@H](Cc1ccccc1)NC(=O)[C@@H]1CCCN1C(=O)[C@@H](N)Cc1ccccc1)[C@@H](C)CC)C(=O)N[C@@H](CCCCN)C(=O)N[C@@H](CO)C(=O)N[C@@H](C)C(=O)N[C@H](C(=O)N[C@@H](CCCCN)C(=O)N[C@@H](CCCN=C(N)N)C(=O)N[C@@H](CC(C)C)C(N)=O)[C@@H](C)CC` [FPFLKLSLKIPKSAIKSAIKRL], the MIC is 8 µM (≈ 20 µg/mL) in the assay with Listeria grayi DSM 20601; 30 µM (≈ 74.9 µg/mL) in assay [6]; 0.25 µM (≈ 0.625 µg/mL) in [7]; 8 µM (≈ 20 µg/mL) against Escherichia coli D31; 30 µM (≈ 74.9 µg/mL) in assay [8].

With `CC[C@H](C)[C@H](NC(=O)CN)C(=O)N[C@@H](CC(C)C)C(=O)NCC(=O)N[C@@H](CCCCN)C(=O)N[C@@H](CC(C)C)C(=O)N[C@@H](Cc1c[nH]c2ccccc12)C(=O)N[C@@H](CCCCN)C(=O)NCC(=O)N[C@H](C(=O)N[C@@H](CCCCN)C(=O)N[C@@H](CO)C(=O)N[C@H](C(=O)N[C@@H](Cc1ccccc1)C(N)=O)[C@@H](C)CC)C(C)C` [GILGKLWKGVKSIF], the MIC in assay [9] was ≥ 32.3 µM; in assay [10], 4.04 µM (≈ 6.25 µg/mL); in assay [11] it was 8.09 µM (≈ 12.5 µg/mL); in assay [12] it was 4.04 µM (≈ 6.25 µg/mL); in [3], 64.7 µM (≈ 99.9 µg/mL); in assay [13] it was 4.04 µM (≈ 6.25 µg/mL). The values for the MIC (with Escherichia coli AB94012; in [14]; in assay [15]) were 16.2 µM (≈ 25 µg/mL), 4.04 µM (≈ 6.25 µg/mL) and 16.2 µM (≈ 25 µg/mL), respectively.

With `CC[C@H](C)[C@H](NC(=O)[C@H](CC(C)C)NC(=O)[C@H](CCCCN)NC(=O)[C@@H](NC(=O)[C@@H](NC(=O)[C@H](Cc1cnc[nH]1)NC(=O)[C@@H]1CCCN1C(=O)[C@H](CC(C)C)NC(=O)[C@@H](NC(=O)[C@H](CCCCN)NC(=O)[C@H](C)NC(=O)[C@H](CC(C)C)NC(=O)[C@H](CCCCN)NC(=O)[C@H](CO)NC(=O)[C@H](C)NC(=O)[C@H](CCSC)NC(=O)CN)C(C)C)C(C)C)C(C)C)C(=O)N[C@@H](CCCCN)C(=O)O` [GMASKLAKVLPHVVKLIK], the MIC in [16] is 1.4 µM (≈ 2.71 µg/mL); with Staphylococcus aureus, 35 µM (≈ 67.6 µg/mL); against Escherichia coli B it was 2.9 µM (≈ 5.6 µg/mL); with Bacillus subtilis 168, 3.1 µM (≈ 5.99 µg/mL); in assay [17], ≥ 56.3 µM; in the assay on Pseudomonas aeruginosa, 100 µM (≈ 193 µg/mL).

With `CC[C@H](C)[C@H](NC(=O)[C@H](Cc1ccccc1)NC(=O)[C@H](CCCCN)NC(=O)[C@H](CC(C)C)NC(=O)[C@H](CCCCN)NC(=O)CNC(=O)[C@@H]1CCCN1C(=O)[C@H](CCCCN)NC(=O)[C@H](CC(C)C)NC(=O)[C@H](C)NC(=O)[C@@H](NC(=O)[C@H](Cc1cnc[nH]1)NC(=O)[C@@H]1CCCN1)C(C)C)C(=O)N[C@H](C(=O)N1CCC[C@H]1C(=O)N[C@@H](CO)C(=O)N1CCC[C@H]1C(=O)N[C@@H](CCCCN)C(=O)N[C@@H](CCCN=C(N)N)C(=O)N1CCC[C@H]1C(=O)N[C@H](C(=O)N[C@@H](CCCCN)C(=O)N[C@@H](CC(C)C)C(=O)N[C@@H](CC(C)C)C(=O)N[C@@H](CO)C(=O)NCC(=O)O)C(C)C)[C@@H](C)CC` [PHVALKPGKLKFIIPSPKRPVKLLSG], the MIC in assay [18] is 2.5 µM (≈ 7.05 µg/mL); in assay [3], 10 µM (≈ 28.2 µg/mL); in assay [19], 20 µM (≈ 56.4 µg/mL); in assay [20] it was ≥ 40 µM; in assay [21], 1.25 µM (≈ 3.53 µg/mL); in assay [4], > 40 µM. Also, the MIC was > 40 µM in assay [22] and ≥ 40 µM in assay [23].

As to `NC(N)=NCCC[C@H](NC(=O)[C@H](Cc1ccccc1)NC(=O)[C@H](CC(=O)O)NC(=O)[C@H](CC(=O)O)NC(=O)[C@@H](N)CCCN=C(N)N)C(=O)O` [RDDFR], the MIC in assay [24] is ≥ 96 µM.
